pKd: −log10 of the molar value.
Key:
[1] = Permeability of compound by PAMPA assay; assay type: ADME; settings: read-out: permeability
[2] = target: T1, Mixed lineage kinase domain-like protein (Homo sapiens, UniProt Q8NB16); test: Binding affinity to MLKL N-terminal executioner domain (2 to 154 residues)(unknown origin) assessed as dissociation constant by TROSY-HSQC NMR titration analysis
T1 sequence (Q8NB16 whole entry): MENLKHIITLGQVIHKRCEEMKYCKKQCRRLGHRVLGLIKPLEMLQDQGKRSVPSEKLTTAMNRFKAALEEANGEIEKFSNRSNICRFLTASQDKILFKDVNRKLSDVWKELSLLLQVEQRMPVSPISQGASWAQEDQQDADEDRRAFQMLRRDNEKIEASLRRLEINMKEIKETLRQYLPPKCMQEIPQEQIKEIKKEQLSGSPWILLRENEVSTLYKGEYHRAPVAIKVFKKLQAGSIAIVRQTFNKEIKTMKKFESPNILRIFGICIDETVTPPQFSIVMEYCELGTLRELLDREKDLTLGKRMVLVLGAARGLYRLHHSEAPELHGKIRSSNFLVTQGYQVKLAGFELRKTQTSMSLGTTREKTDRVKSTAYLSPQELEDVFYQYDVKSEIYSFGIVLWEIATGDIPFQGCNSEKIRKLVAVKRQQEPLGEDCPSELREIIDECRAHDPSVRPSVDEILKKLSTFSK

Row | Structure (SMILES) | Papp [1] [×10⁻⁶ cm/s] | pKd [2]
1 | CO[C@@H](c1ccc(C(C)C)cc1)c1nc2ccc(C(=O)O)cc2[nH]1 | 0.031 | 
2 | COCCOCn1c(S(C)(=O)=O)nc2c1c(=O)n(C)c(=O)n2C |  | 4.14
3 | CCCCCCCCCO[C@@H]1O[C@H](CO)[C@@H](O[C@H]2O[C@H](CO)[C@@H](O)[C@H](O)[C@H]2O)[C@H](O)[C@H]1O |  | 2.26

From ChEMBL document CHEMBL5034032, “Discovery and Structure-Based Optimization of Fragments Binding the Mixed Lineage Kinase Domain-like Protein Executioner Domain” (J Med Chem, 2021)
